For two molecules, IC50 results are on record in ChEMBL document CHEMBL4007387, “Therapeutic evolution of benzimidazole derivatives in the last quinquennial period” (Eur J Med Chem, 2017).

For one experiment, the system named is HeLa. In words: Antiproliferative activity against human HeLa cells after 48 hrs by MTT assay. The format is functional, cell-based. In general terms: Formazan colour is commonly taken as a measure of viable cells.
In a further experiment the test system is PBMC. Description: Antiproliferative activity against human PBMC after 48 hrs by MTT assay. Type of experiment: cell-based.
The next experiment concerns MCF7. In words: Antiproliferative activity against human MCF7 cells after 48 hrs by MTT assay. Type of experiment: functional, cell-based. The settings on record: MCF7, 48 h.
The test system of the next experiment is Hep 3B2. In words: Antiproliferative activity against human Hep3B cells after 48 hrs by MTT assay. The format is functional, cell-based.
The next experiment concerns NIH3T3. Description: Antiproliferative activity against mouse NIH/3T3 cells after 72 hrs by real-time cell analysis. Type of experiment: cell-based. The following applies: NIH3T3, 72 h.

In general, IC50 refers to the concentration at which inhibition is half-maximal. Lower therefore signals greater potency. `Cc1nc2ccccc2n1CC(=O)NN`: the IC50 worked out at 5.34 µM with HeLa, 23 µM in the experiment with PBMC, 24.2 µM in the experiment on MCF7 and 40.5 µM in the experiment with Hep 3B2.

`COc1ccc2[nH]c(SCC(=O)Nc3ccc(-c4csc(-c5ccccc5)n4)cc3)nc2c1` returned an IC50 in the experiment on NIH3T3 of 74.6 µM.
